Data published in patent publication US11406631B2, “Hydrazone derivatives for preventing or treating EBV-related cancers” (Universite de Bretagne Occidentale, priority 2018, dated 2022).

Key:
G4-RNA EBNA1 = assay: HT-G4-FID assay: Thiazole Orange displacement from G4-RNA; assay type: binding, Epstein-Barr virus; conditions: for DC50: K+-100 buffer, pH 7.3, triplicate assays; for affinity for the G-quadruplex structure of EBNA1 (in words, FID data): conclusion from Table 1
Method: This assay is based on the displacement of a fluorescent indicator (Thiazole Orange, hereinafter TO) from a G4-RNA structure (RNA G-quadruplex of EBNA1) by a putative ligand such as the compounds of the invention (see FIG. 1). This displacement is quantified as % TO displacement. The percentage of TO displacement is calculated from the fluorescence intensity (F) in the presence of a putative ligand, using:
[formula] where F0 is fluorescence intensity of the probe (TO) bound to RNA without added ligand. The percentage of displacement is then plotted as a function of the concentration of added ligand. The RNA affinity of putative ligands is evaluated using the concentration of a ligand required to decrease the fluorescence of the probe by 50% (noted DC50), which is determined graphically from non-linear fitting of the displacement curve. […] 2. Materials and Reagents
Thiazole Orange (TO) and cacodylic acid were purchased from Aldrich and used without further purification. The oligoribonucleotide EBNA1 [5′-r(GGGGCAGGAGCAGGAGGA)-3′] (SEQ ID no 1) purified by reversed-phase HPLC was purchased from Eurogentec.
Stock solutions of the ligands (2 mM in DMSO (dimethylsulfoxyde)) were used for G4-FID assay, unless otherwise stated, and were stored at −20° C. Stock solutions of TO (2 mM in DMSO) were used for G4-FID assay. Fluorescent probe powders and solutions were stored and used, protected from light and used as aliquots to avoid freeze-thaw cycles. HT-G4-FID measurements were performed on a FLUOstar Omega microplate reader (BMG Labtech) with 96-well Non-Binding Surface black with black bottom polystyrene microplates (Corning ref 3650).
For HT-G4-FID assay, the oligonucleotide was dissolved in K^+−100-buffer (10 mM lithium cacodylate, pH 7.3, 100 mM KCl, 1 mM EDTA, 1% DMSO). Oligonucleotide concentrations were determined on the basis of their absorbance at 260 nm. Prior to use, the oligonucleotide was pre-treated by heating at 95° C. for 5 min followed by a slow cooling to 25° C.
Each G4-FID assay is performed in a 96-well microplates. […] The microplate is filled with (a) K^+−100 solution (qs for 200 μL) (b) 10 μL of a solution of pre-folded oligonucleotides (5 μM) and TO (10 μM-2 eq) and (c) an extemporaneously prepared 5 μM ligand solution in K^+−100 buffer (0 to 100 μL along the line of the microplate, i.e., from column […]: 0, 0.125, 0.25, 0.375, 0.5, 0.625, 0.75, 1.0, 1.25, 1.5, 2.0 and 2.5 μM) (see Largy et al., Anal Bioanal Chem 2011, 400, 34193427). After 5 min of orbital shaking at 500 rpm, fluorescence intensity is measured using the following experimental parameters: positioning delay: 0.5 s, 20 flashes per well, emission/excitation filters (nm): 485/520, gain adjusted at 80% of the fluorescence from the most fluorescent well (i.e., a well from column A).
Results are shown in Table 1 below (lower DC50 values indicate higher affinity of compounds to the G4-RNA structure of EBNA1).

quadruplex RNA F-EBNA1-T = assay: FRET-melting assay; assay type: binding, Epstein-Barr virus; conditions: for ΔTm, ligand + 3 μM ds26 / ΔTm, ligand + 10 μM ds26 / ΔTm, ligand alone: F-EBNA1-T 0.2 μM, ligand 1.0 μM, K+10 buffer; for ΔTm, ligand + 3 μM ds26: competitor DNA ds26 3 μM (15 eq); for ΔTm, ligand + 10 μM ds26: competitor DNA ds26 10 μM (50 eq); for ΔTm, ligand alone: no competitor; for affinity for the G-quadruplex structure of EBNA1 (in words, FRET-melting data): conclusion from Table 2
Excerpt: The FRET-melting assay is based on thermal denaturation of G4-ARN monitored by fluorescence due to the phenomenon of Förster Resonance Energy Transfer (FRET). This method uses quadruplex-forming RNA sequence dual-labeled with two different fluorophores: a donor (fluorescein, or FAM) and an acceptor (tetramethylrhodamine, or TAMRA). When RNA is folded into G-quadruplex (G4) structure, fluorescence of the donor fluorophore is weak due to strong energy transfer (FRET) to the neighboring acceptor fluorophore. Upon thermal denaturation, the quadruplex unfolds and the fluorophores are separated, leading to decrease of the FRET effect and increase of the fluorescence of the donor (see FIG. 2). By following the fluorescence of the donor as a function of temperature, a melting curve of the G-quadruplex RNA can be obtained, which allows determining the temperature of denaturation at which 50% of the quadruples is unfolded (T1, FIG. 3).
The FRET-melting assay allows assessing the affinity of small molecules (ligands) for the G4-RNA. The addition of a G4-ligand stabilizes the G-quadruplex structure and increases the denaturation temperature. The temperature of denaturation in the presence of ligands (T2) can be compared with that obtained in the absence of ligands (T1). The value of ΔTm (ΔTm=T2−T1) represents a measure of the affinity of the compounds of the invention (ligand). Generally, values of ΔTm>20° C. correspond to ligands of high affinity.
The dual-labeled oligoribonucleotide EBNA1 [5′-FAM-r(GGGGCAGGAGCAGGAGGA)-TAMRA-3′] (SEQ ID no 2) purified by reversed-phase HPLC was purchased from Eurogentec. The donor fluorophore was 6-carboxyfluorescein (FAM) and the acceptor fluorophore was 6-carboxytetramethylrhodamine (TAMRA).
Stock solutions of the ligands (2 mM in DMSO) were used for FRET-melting assay, unless otherwise stated, and were stored at −20° C. FRET-melting measurements are performed on 7900HT Fast Real-Time PCR System (Applied Biosystems) with Microamp Fast optical 96-well reaction plate (Applied Biosystems).
Preparation of Oligonucleotides For FRET-melting assay, oligoribonucleotide F-EBNA1-T was dissolved in K^+10 buffer (10 mM lithium cacodylate buffer, pH 7.3, supplemented with 10 mM KCl and 90 mM LiCl).
Prior to use, all oligonucleotides were pre-treated by heating at 95° C. for 5 min, then rapidly cooled to 4° C. to favor the intramolecular folding by kinetic trapping. Duplex-DNA ds26 (5′CAA-TCG-GAT-CGA-ATT-CGA-TCC-GAT-TG-3′) (SEQ ID no 3) was prepared by heating this self-complementary strand at 90° C. for 5 min in K^+10 buffer followed by a slow cooling over 6 h.
FRET-melting assay is performed in 96-well plates on real time PCR apparatus 7900HT Fast Real-Time PCR System using the heating ramp as follow: 5 min at 25° C., then increase of 0.5° C. every minute until 95° C. Each experimental condition was tested in duplicated in a volume of 25 μL for each sample. The 96-well plates (Applied Biosystems) were prepared by aliquoting the annealed RNA (24 μL of 0.21 μM solution in K^+10 buffer) into each well, followed by 1 μL of ligand solution (25 μM in K^+10 buffer). For competition experiments, duplex competitors were added to 200 nM quadruplex sequences at final concentrations of 3.0 μM (15 eq) and 10.0 μM (50 eq), with a total reaction volume of 25 μL, with the labeled oligoribonucleotide (0.2 μM) and the ligand (1.0 μM). Measurements were made with excitation at 492 nm and detection at 516 nm. The change in the melting temperature in the presence of 1.0 μM putative ligand, ΔTm (1.0 μM), was calculated from at least two experiments by subtraction of the blank from the averaged melting temperature of each compound (1.0 μM).
The results are shown in FIG. 4 and in Table 2 below (higher ΔTm values indicate higher affinity of the compounds to G4-RNA structure of EBNA1).

Row | SMILES | DC50 (G4-RNA EBNA1) [nM] | ΔTm, ligand + 3 μM ds26 (quadruplex RNA F-EBNA1-T) [°C] | ΔTm, ligand + 10 μM ds26 (quadruplex RNA F-EBNA1-T) [°C] | ΔTm, ligand alone (quadruplex RNA F-EBNA1-T) [°C] | affinity for the G-quadruplex structure of EBNA1 (in words, FRET-melting data) (quadruplex RNA F-EBNA1-T) | affinity for the G-quadruplex structure of EBNA1 (in words, FID data) (G4-RNA EBNA1)
1 | CC[n+]1cccc2cc(C=NNC(=O)c3ccc4ccc5ccc(C(=O)NN=Cc6ccc7c(ccc[n+]7CC)c6)nc5c4n3)ccc21.[I-].[I-] [Compound 12b, N′^2,N′^9-Bis[(1-ethylquinolinium-6-yl)methylene]-1,10-phenanthroline-2,9-dicarbohydrazide iodide] | 590 ± 30 | 25.9 ± 0.4 | 25.1 ± 0.8 | 28.5 ± 1.1 | particularly high affinity | –
2 | O=C(NN=Cc1ccc2c(ccc[n+]2Cc2ccccc2)c1)c1ccc2ccc3ccc(C(=O)NN=Cc4ccc5c(ccc[n+]5Cc5ccccc5)c4)nc3c2n1.[Br-].[Br-] [Compound 12c, N′^2,N′^9-Bis[(1-benzylquinolinium-6-yl)methylene]-1,10-phenanthroline-2,9-dicarbohydrazide bromide] | 650 ± 60 | 25.0 ± 0.7 | 22.7 ± 1.5 | 25.3 ± 1.3 | particularly high affinity | –
3 | CC[n+]1cccc2cc(C=NNC(=O)c3ccc4ccc(C(=O)NN=Cc5ccc6c(ccc[n+]6CC)c5)nc4n3)ccc21.[I-].[I-] [Compound 9b, N′^2,N′^7-Bis[(1-ethylquinolinium-6-yl)methylene]-1,8-naphthyridine-2,7-dicarbohydrazide iodide] | 800 ± 10 | 10.3 ± 0.2 | 8.8 ± 0.2 | 11.8 ± 0.1 | – | –
4 | O=C(NN=Cc1cc[n+](Cc2ccccc2)c2ccccc12)c1ccc2ccc3ccc(C(=O)NN=Cc4cc[n+](Cc5ccccc5)c5ccccc45)nc3c2n1.[Br-].[Br-] [Compound 11c, N′^2,N′^9-Bis[(1-benzylquinolinium-4-yl)methylene]-1,10-phenanthroline-2,9-dicarbohydrazide bromide] | 340 ± 20 | 20.3 ± 0.4 | 17.0 ± 0.8 | 20.1 ± 0.3 | particularly high affinity | particularly high affinity
5 | O=C(NN=Cc1ccc2c(ccc[n+]2Cc2ccccc2)c1)c1cccc(C(=O)NN=Cc2ccc3c(ccc[n+]3Cc3ccccc3)c2)n1.[Br-].[Br-] [Compound 3c, N′^2,N′^6-Bis[(1-benzylquinolinium-6-yl)methylene]pyridine-2,6-dicarbohydrazide bromide] | 720 ± 30 | 12.2 ± 0.2 | 12.0 ± 0.2 | 10.4 ± 0.3 | – | –
6 | CC[n+]1cccc2cc(C=NNC(=O)c3cccc(C(=O)NN=Cc4ccc5c(ccc[n+]5CC)c4)n3)ccc21.[I-].[I-] [Compound 3b, N′^2,N′^6-Bis[(1-ethylquinolinium-6-yl)methylene]pyridine-2,6-dicarbohydrazide iodide] | 740 ± 30 | 7.6 ± 0.5 | 7.4 ± 0.3 | 5.9 ± 0.1 | – | –
7 | O=C(NN=Cc1ccc2c(ccc[n+]2Cc2ccccc2)c1)c1ccc2ccc(C(=O)NN=Cc3ccc4c(ccc[n+]4Cc4ccccc4)c3)nc2n1.[Br-].[Br-] [Compound 9c, N′^2,N′^7-Bis[(1-benzylquinolinium-6-yl)methylene]-1,8-naphthyridine-2,7-dicarbohydrazide bromide] | 1090 ± 100 | 12.3 ± 0.4 | 10.0 ± 1.7 | 13.1 ± 0.6 | – | –
8 | O=C(NN=Cc1cc[n+](Cc2ccccc2)c2ccccc12)c1cccc(C(=O)NN=Cc2cc[n+](Cc3ccccc3)c3ccccc23)n1.[Br-].[Br-] [Compound 2c, N′^2,N′^6-Bis[(1-benzylquinolinium-4-yl)methylene]pyridine-2,6-dicarbohydrazide bromide] | 390 ± 20 | 11.4 ± 0.6 | 9.6 ± 0.2 | 10.1 ± 0.9 | – | particularly high affinity
